Assay results as given in patent publication US11072592B2, “Small molecules that enable cartilage rejuvenation” (The Regents of the University of California, priority 2015, dated 2021).
Entries after “also recorded” stand apart in the source; their conditions may differ.

What was measured:
pSTAT3 and MYC = experiment: Western blot of pSTAT3 and MYC in adult human articular chondrocytes; assay type: cell-based; settings: for levels of MYC / levels of pSTAT3: adult human articular cartilage/chondrocytes, treated vs untreated, relative to histone H3
Text: Only early passages of chondrocytes (passage 0-2) were used for experimentation to avoid de-differentiation and loss of cartilage phenotype (Wu et al., 2014). Cartilage explants were made using 1, 2 or 8 mm biopsy punch and wet weight of each explant determined prior to experimentation. For cell isolation cartilage tissue was digested as described previously (Wu et al., 2015). Postnatal paraffin embedded joint and growth plate specimens were kindly donated by Dr Marcel Karperien from the University of Twente (Netherlands) and Dr Nick Bernthal from University of California Los Angeles. All donated material was anonymous and carried no personal identifiers. Cell culture reagents were purchased from Life Technologies, Inc. (Grand Island, N.Y.). Growth factors LIF, OSM, IL-6, TNF-α, IL-1β were purchased from Life Technologies, Inc (Grand Island, N.Y.). STATTIC, 10058-F4, SCl44 hydrochloride, and CP-690550 were purchased from Sigma Aldrich (St. Louis, Mo.). RCGD 423 (N-(4-Bromophenyl)-4-phenyl-1,3-thiazol-2-amine) was synthesized and provided by MolPort (Riga, Latvia). Fetal, adult and pig chondrocytes were cultured in DMEM F12 medium containing 10% (vol/vol) fetal bovine serum and 1% Penicillin-Streptomycin (vol/vol) at 37° C. in a humidified atmosphere of 95% aid and 5% CO2. Media was replenished with DMEM F12 medium containing 1% (vol/vol) fetal bovine serum and 1% Penicillin-Streptomycin (vol/vol) once treatments were added. For 3-dimensional (3D) cell cultures adult human articular chondrocytes were incubated with or without RCGD 423 using 10% solution of Mebiol® hydrogel from Cosmo Bio (Carlsbad, Calif.) in X-vivo 15 serum free medium from Lonza (Walkersville, Md.) as described previously (Wu et al., 2014).
(§1) Treated and non-treated ells were lysed in RIPA Lysis and Extraction Buffer (Pierce, Rockford, Ill.) containing protease inhibitors (Pierce) followed by sonication with a 15-second pulse at a power output of 2 using the VirSonic 100 (SP Industries Company, Warminster, Pa.). Protein concentrations were determined by BCA protein assay (Pierce). Proteins were resolved with SDS-PAGE utilizing 4-15% Mini-PROTEAN TGX Precast Gels and transferred to Trans-Blot Turbo Transfer Packs with a 0.2-μm pore-size nitrocellulose membrane. The SDS-PAGE running buffer, 4-15% Mini-PROTEAN TGX Precast Gels, Trans-Blot Turbo Transfer Packs with a 0.2-μm pore-size nitrocellulose membrane were purchased from Biorad (Hercules, Calif.). Nitrocellulose membranes were blocked in 5% nonfat milk in 0.05% (v/v) Tween 20 (PBST) (Corning, Manassas, Va.). Membranes were then incubated with primary antibodies phospho-STAT3 (#9131), MYC (#5605), NF-κB p65 (#D14E12), pAKT (#9272) Histone 3 (#9715) from Cell Signaling, (Danvers, Mass.); MEK1/2 (ab70613) and p38 (ab795) from Abcam (Cambridge, Mass.) overnight. After washing in PBS containing 0.05% (v/v) Tween 20 (PBST), membranes were incubated with Goat anti-Rabbit IgG (H+L) Secondary Antibody (Thermo Scientific Rockford, Ill.). After washing, membranes were developed with the Clarity Western ECL Blotting Substrate (Hercules, Calif.).

[1] = test system: MAPK, AKT, NF-κB pathways; experiment: Western blot of MAPK, AKT and NF-κB signaling in adult pig articular chondrocytes; assay type: cell-based; settings: 24 hours
Method: FIGS. 30A-30B. […] (FIG. 30A) Adult pig articular chondrocytes were cultured for 24 hours with the indicated cytokines or RCGD 423 and the levels of pSTAT3 and MYC were measured with respect to histone H3. Representative data for other proteins in the MAPK (p38 and MEK1/2), AKT (phospho-AKT; pAKT) or NF-KB (NF-KB p65) are also shown. (FIG. 30B) Levels of transcription of genes indicative of a catabolic response were determined via quantitative PCR in adult pig articular chondrocytes treated with OSM, IL-6, TNF-α, LIF or RCGD 423. Data are represented at mean±SD.
Cartilage degeneration is generally considered a feed-forward process, in which small losses of chondrocytes result in microenvironmental changes including induction of an inflammatory response and other pro-catabolic events (Hunziker, 2002). In turn, these alterations in the joint milieu promote production of matrix degrading proteins including MMPs (collagenases) and proteins of the ADAMTS family (aggrecanases). LIF has been implicated in promoting this cycle of matrix destruction during the pathogenesis of osteoarthritis (Hui et al., 2000; Lotz et al., 1992), although its role in this process has been controversial. In order to better understand the mechanism of action of LIF, RCGD 423 and known pro-inflammatory cytokines in the promotion of degeneration, we stimulated adult pig articular chondrocytes with these molecules and quantitated the levels of activated downstream proteins that mediate the cellular signaling response (FIG. 30A).
as §1

[2] = 48 hours after withdrawal (data not shown)
[3] = human adult articular chondrocytes, 1 μM

Row | Molecule | specificity and selectivity of effect for p-STAT3 and c-MYC (pSTAT3 and MYC) | protein level of c-MYC after withdrawal (pSTAT3 and MYC; [2]) | protein level of p-STAT-3 after withdrawal (pSTAT3 and MYC; [2]) | levels of MYC (pSTAT3 and MYC) | levels of pSTAT3 (pSTAT3 and MYC) | levels of c-MYC (pSTAT3 and MYC; [3]) | levels of p-STAT3 (pSTAT3 and MYC; [3]) | NF-κB protein [1] | activation of AKT [1] | activation of the MAPK pathway [1]
1 | Brc1ccc(Nc2nc(-c3ccccc3)cs2)cc1 [RCGD 423, N-(4-Bromophenyl)-4-phenyl-1,3-thiazol-2-amine] | highly specific and selective | decreased | decreased | robustly increased | robustly increased | elevated | elevated | did not activate AKT or stabilize | did not activate; also recorded: no activation | weakly activating
2 | LIF: interleukin 6 (IL-6)-class cytokine |  |  |  | large increases; also recorded: robustly increased | large increases; also recorded: robustly increased |  |  |  | stimulated the activation; also recorded: strong activation | weaker response
